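The compound was tested at five concentrations on cells cultured in 96-well plates, with a 48-hour exposure period. TGI: concentration producing complete growth inhibition.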
Columns and labels:
Assay in all cases: inhibition of tumour cell growth, NCI panel, 48 h
[1] = tested on: NCI-H460 lung
[2] = tested on: BT-549 breast
[3] = tested on: OVCAR-5 ovarian
[4] = tested on: MDA-N
[5] = tested on: SK-OV-3 ovarian
[6] = tested on: HL-60(TB) leukemia
[7] = tested on: M14 melanoma
[8] = tested on: EKVX NSCLC
[9] = tested on: SR leukemia
[10] = tested on: SW-620 colon
[11] = tested on: SF-295 CNS
[12] = tested on: SF-268 CNS
[13] = tested on: MALME-3M melanoma
[14] = tested on: K-562 leukemia
[15] = tested on: NCI-H226 lung
[16] = tested on: SK-MEL-28 melanoma
[17] = tested on: HCC-2998 colon
[18] = tested on: NCI-H522 lung
[19] = tested on: HOP-62 NSCLC
[20] = tested on: NCI-H23 lung
[21] = tested on: LOX IMVI melanoma
[22] = tested on: SN12C renal
[23] = tested on: CAKI-1 renal
[24] = tested on: PC-3 prostate
[25] = tested on: SNB-19 CNS
[26] = tested on: OVCAR-3 ovarian
[27] = tested on: HCT-116 colon
[28] = tested on: DU-145 prostate
[29] = tested on: MDA-MB-231 breast
[30] = tested on: MDA-MB-435
[31] = tested on: MCF7 breast
[32] = tested on: SK-MEL-5 melanoma
[33] = tested on: NCI/ADR-RES ovarian
[34] = tested on: 786-0 renal
[35] = tested on: UACC-62 melanoma
[36] = tested on: KM12 colon
[37] = tested on: T-47D breast
[38] = tested on: CCRF-CEM leukemia
[39] = tested on: IGROV1 ovarian
[40] = tested on: ACHN renal
[41] = tested on: HS 578T breast
[42] = tested on: OVCAR-8 ovarian
[43] = tested on: HOP-92 NSCLC
[44] = tested on: TK-10 renal
[45] = tested on: A498 renal
[46] = tested on: COLO 205 colon
[47] = tested on: A549 NSCLC
[48] = tested on: HCT-15 colon
[49] = tested on: UO-31 renal
[50] = tested on: U251 CNS
[51] = tested on: OVCAR-4 ovarian
[52] = tested on: HT29 colon
[53] = tested on: UACC-257 melanoma
[54] = tested on: MOLT-4 leukemia
[55] = tested on: RXF 393 renal
[56] = tested on: RPMI-8226 leukemia
[57] = tested on: SNB-75 CNS
[58] = tested on: SK-MEL-2 melanoma
[59] = tested on: SF-539 CNS

Measured: TGI

O=C(Nc1nn(C(=O)c2ccc(Cl)cc2)c(=O)s1)c1ccc(Cl)cc1
> 100 µM: [1] | [2] | [3] | [4] | [5] | [6] | [7] | [8] | [9] | [10] | [11] | [12] | [13] | [14] | [15] | [16] | [17] | [18] | [19] | [20] | [21] | [22] | [23] | [24] | [25] | [26] | [27] | [28] | [29] | [30] | [31] | [32] | [33] | [34] | [35] | [36] | [37] | [38] | [39] | [40] | [41] | [42] | [43] | [44] | [45] | [46] | [47] | [48] | [49] | [50] | [51] | [52] | [53] | [54] | [55]

COC(=O)C1c2c(c3ccccc3n2C(=O)OC)CCN2CCC1C(S(=O)(=O)c1ccccc1)C2=O (stereo unspecified)
> 100 µM: [1] | [2] | [3] | [4] | [5] | [6] | [7] | [8] | [9] | [10] | [11] | [12] | [56] | [13] | [14] | [15] | [16] | [18] | [19] | [20] | [21] | [22] | [57] | [23] | [24] | [25] | [26] | [27] | [28] | [29] | [30] | [31] | [32] | [33] | [34] | [35] | [36] | [37] | [38] | [58] | [39] | [41] | [42] | [43] | [44] | [45] | [46] | [47] | [59] | [48] | [49] | [50] | [52] | [53] | [54] | [55]
